For test [1], the target named is Integrin avb3 (Homo sapiens, UniProt P05106+P06756). Briefly: Binding of ganglioside to integrin avb3.
Test [2] relates to adhesion to vitronectin. Kind of test: Adhesion to vitronectin. The class given is cell-based. From the text:
(§1) The ganglioside specifically interacts through carbohydrate moieties, with preference for the a5 subunit of the a5b1. […] Although any interaction between ganglioside and integrin b1 is much weaker, GT1b is able to bind b1 and, by doing so, inhibits b1 phosphorylation and serine/threonine phosphorylation.

Test [3] deals with T1, keratinocyte a5b1 (Homo sapiens, UniProt P05556+P08648).
T1 construct: endogenous in cells; host or cells: keratinocytes
Kind of test: Direct interaction of ganglioside with keratinocyte a5b1. The format is binding. Particulars: through carbohydrate moieties.
From the text: as §1

The test system of test [4] is FAK. Kind of test: Phosphorylation of FAK. The format is cell-based.
From the text: as §1

For test [5], the system named is integrin-linked kinase. Briefly: Phosphorylation of integrin-linked kinase. The format is cell-based.
From the text: as §1

The subject of test [6] is keratinocytes and keratinocyte-derived cells. Kind of test: Adhesion of keratinocytes and keratinocyte-derived cells to fibronectin. The class given is cell-based. The conditions noted are these: fibronectin substrate. From the text:
(§2) Keratinocyte motility on a fibronectin substrate is critical in the reepithelialization of healing wounds, and in the spread of cutaneous malignancy. We discovered that gangliosides GT1b and GD3 inhibit the adhesion to and migration of keratinocytes and keratinocyte-derived cells on fibronectin (See, Paller, A. S., et al., J. Invest. Dermatol., 105:237-242 (1995); Sung, C-C., et al., Exp. Cell Res., 239:311-319 (1998); Wang, X-Q, et al., J. Biol. Chem., 276(48):44504-44511 (2001) each incorporated by reference). Conversely, endogenous depletion of gangliosides through sialidase gene modulation leads to increased adhesion of the cells to fibronectin and vitronection. Gangliosides also trigger the apoptosis of keratinocytes when plated on a fibronectin matrix.

Test [7] has as its system MMP-2. Kind of test: MMP-2 expression and activity in keratinocyte-derived SCC12 cells. The class given is cell-based. On the procedure:
(§3) In contrast, inhibitors of protein kinase C (PKC) decrease the expression of TIMP-1 in SCC12 cells without altering MMP-9 expression. […] When both activators of PKC and gangliosides GT1b or GD3 are incubated together with the SCC12 cells, no change in the expression or activity of MMP-2 is noted. These studies provide evidence that more highly sialylated gangliosides modulate MMP-2 expression and activity in keratinocytes through a mechanism that involves suppression of the PKC signaling pathway.

Test [8] relates to keratinocytes and keratinocyte-derived cells. Kind of test: Migration of keratinocytes and keratinocyte-derived cells on fibronectin. The class given is cell-based. Particulars: fibronectin substrate.
From the text: as §2

For test [9], the system named is skin cells. Briefly: Proliferation of skin cells. The class given is cell-based. From the text: One manifestation of basal cell and squamous cell cancers of the skin, psoriasis, and genetic disorders of skin overgrowth, such as certain forms of ichthyosis, is excessive proliferation of skin. In our experiments, we have noted that alterations in ganglioside content, whether by pharmacologic manipulation or endogenous alteration through gene therapy, also affect the growth of skin cells. […] We have now determined that a decrease in the same gangliosides would increase the proliferation of skin cells; in fact, we have determined that transfection of a sialidase gene that cleaves the sialic acid group(s) from all gangliosides results in total ganglioside depletion, and leads to increased proliferation of skin cells. […] We believe that a number of other gangliosides have similar effects, as described below, and could be used in therapeutic treatments.

Test [10] concerns the target T2, epidermal growth factor receptor (Homo sapiens, UniProt P00533).
T2 construct: epidermal growth factor receptor in keratinocytes; endogenous in cells; host or cells: keratinocytes
Briefly: Direct binding of ganglioside to the epidermal growth factor receptor in keratinocytes. From the text: (§4) The mechanism for the overgrowth of skin cells depleted of gangliosides and for the inhibition of growth of skin cells with increased ganglioside GM3 is decreased availability of the epidermal growth factor receptor for binding to its ligands (epidermal growth factor and transforming growth factor-α). […] Also affected are downstream components in the epidermal growth factor signaling transduction pathway, e.g. GM3 downregulates the phosphorylation of MAP kinase and PI3 kinase.

Test [11] has as its system PI3 kinase. Briefly: Phosphorylation of PI3 kinase (EGF signalling pathway). The class given is cell-based.
From the text: as §4

The test system of test [12] is MMP-9. Briefly: MMP-9 expression and activity in keratinocyte-derived cells. The class given is cell-based. On the procedure: as §3
The test system of test [13] is MAP kinase. Kind of test: Phosphorylation of MAP kinase (EGF signalling pathway). The format is cell-based.
From the text: as §4

In test [14] the test system is TIMP-1. Briefly: TIMP-1 expression in keratinocyte-derived cells. The class given is cell-based. The procedure: as §3
In test [15] the test system is explant cultures from patients with psoriasis. Briefly: Attachment of explant cultures from patients with psoriasis. The class given is cell-based. From the text:
The interaction of a5b1 and fibronectin is considered critical for embryonic development of skin, healing of wounds and spread of cutaneous malignancies. In addition, it is known in the art that cells from patients with psoriasis have shown increased adherence to fibronectin and a decreased ability to undergo apoptosis. […] Integrin avb3 plays a vital role in the development and proliferation of blood vessels in skin; increased activity leads to neovascularization, while inhibition can inhibit new vessel formation. Thus, an increase in more complex skin gangliosides, particularly GT1b, may be novel agents for treating psoriasis or in inhibiting vascular-dependent processes, such as the rapid growth of hemangiomas in infants. In contrast, depletion of gangliosides (e.g., through increased local sialidase activity) may encourage wound healing, through increasing the migration of keratinocytes, increasing keratinocyte proliferation, and encouraging angiogenesis. Thus, the invention includes administering gangliosides including but not limited to GT1b and GD3, and other agents that affect the amount and action of these gangliosides, to control fibronectin interactions.

Test [16] deals with T3, integrin b1 (Homo sapiens, UniProt P05556). Kind of test: Binding of ganglioside to integrin b1.
From the text: as §1

Test [17] concerns the target T3, integrin b1. Briefly: Phosphorylation of integrin b1. The format is cell-based.
From the text: as §1

In test [18] the test system is TIMP-2. Briefly: TIMP-2 expression in keratinocyte-derived SCC12 cells. The class given is cell-based. On the procedure: as §3
The mark [19] stands for this setting: ganglioside incubated together with activators of PKC, SCC12 cells.
Setting [20] is: keratinocyte-derived SCC12 cells.
[21] abbreviates: pharmacologic addition to normal keratinocyte-derived cells.

T3 sequence (P05556 21-798): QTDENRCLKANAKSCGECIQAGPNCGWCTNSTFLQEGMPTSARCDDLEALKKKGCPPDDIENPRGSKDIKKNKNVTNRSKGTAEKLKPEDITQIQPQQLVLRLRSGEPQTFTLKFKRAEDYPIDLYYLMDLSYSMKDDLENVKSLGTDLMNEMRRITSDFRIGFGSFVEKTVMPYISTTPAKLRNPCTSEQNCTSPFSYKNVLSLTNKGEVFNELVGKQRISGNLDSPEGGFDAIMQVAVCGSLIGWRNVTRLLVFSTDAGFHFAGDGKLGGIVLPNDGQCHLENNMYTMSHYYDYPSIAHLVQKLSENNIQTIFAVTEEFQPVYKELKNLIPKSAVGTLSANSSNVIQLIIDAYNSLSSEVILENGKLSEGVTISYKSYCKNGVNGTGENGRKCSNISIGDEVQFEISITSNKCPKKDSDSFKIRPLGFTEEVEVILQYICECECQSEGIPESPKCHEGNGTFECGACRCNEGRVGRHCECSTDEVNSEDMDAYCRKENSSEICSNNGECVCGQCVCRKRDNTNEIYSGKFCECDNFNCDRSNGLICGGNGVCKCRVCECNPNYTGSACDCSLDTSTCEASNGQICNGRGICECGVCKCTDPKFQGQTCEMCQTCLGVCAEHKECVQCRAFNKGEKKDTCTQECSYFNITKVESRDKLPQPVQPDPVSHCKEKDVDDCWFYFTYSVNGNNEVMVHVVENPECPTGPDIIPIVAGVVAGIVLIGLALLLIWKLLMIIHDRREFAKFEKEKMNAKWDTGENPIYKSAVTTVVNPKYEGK
T3 sequence (P08648 42-894 partner limits assumed): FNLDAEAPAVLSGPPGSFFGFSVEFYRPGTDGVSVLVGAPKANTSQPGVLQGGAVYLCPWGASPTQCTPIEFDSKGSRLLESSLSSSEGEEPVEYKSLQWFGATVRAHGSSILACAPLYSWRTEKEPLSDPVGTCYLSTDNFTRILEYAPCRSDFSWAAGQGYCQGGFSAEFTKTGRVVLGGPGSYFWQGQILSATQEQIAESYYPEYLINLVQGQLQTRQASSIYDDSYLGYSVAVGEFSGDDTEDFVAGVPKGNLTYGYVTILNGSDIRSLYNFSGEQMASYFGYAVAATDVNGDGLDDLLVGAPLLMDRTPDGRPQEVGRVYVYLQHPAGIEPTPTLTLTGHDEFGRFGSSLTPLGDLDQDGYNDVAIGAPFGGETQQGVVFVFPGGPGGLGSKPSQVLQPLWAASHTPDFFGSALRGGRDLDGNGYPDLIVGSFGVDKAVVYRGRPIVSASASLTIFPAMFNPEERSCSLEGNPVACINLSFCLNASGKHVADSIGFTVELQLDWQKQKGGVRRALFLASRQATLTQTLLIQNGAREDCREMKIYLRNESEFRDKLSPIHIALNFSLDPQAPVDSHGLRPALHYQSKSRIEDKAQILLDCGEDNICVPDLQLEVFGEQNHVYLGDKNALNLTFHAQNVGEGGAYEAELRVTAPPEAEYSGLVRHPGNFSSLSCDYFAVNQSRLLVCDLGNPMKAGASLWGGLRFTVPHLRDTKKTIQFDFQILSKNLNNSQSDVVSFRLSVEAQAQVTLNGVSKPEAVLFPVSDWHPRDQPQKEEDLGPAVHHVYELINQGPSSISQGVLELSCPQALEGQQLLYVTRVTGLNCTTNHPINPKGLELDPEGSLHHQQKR
T3 sequence (P08648 895-1049 partner limits assumed): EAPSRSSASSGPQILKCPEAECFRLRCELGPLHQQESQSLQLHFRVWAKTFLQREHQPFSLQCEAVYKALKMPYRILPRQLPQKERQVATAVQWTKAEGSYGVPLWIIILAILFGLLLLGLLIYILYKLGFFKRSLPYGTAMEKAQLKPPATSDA
Integrin avb3, sequence (P06756 31-889 limits assumed): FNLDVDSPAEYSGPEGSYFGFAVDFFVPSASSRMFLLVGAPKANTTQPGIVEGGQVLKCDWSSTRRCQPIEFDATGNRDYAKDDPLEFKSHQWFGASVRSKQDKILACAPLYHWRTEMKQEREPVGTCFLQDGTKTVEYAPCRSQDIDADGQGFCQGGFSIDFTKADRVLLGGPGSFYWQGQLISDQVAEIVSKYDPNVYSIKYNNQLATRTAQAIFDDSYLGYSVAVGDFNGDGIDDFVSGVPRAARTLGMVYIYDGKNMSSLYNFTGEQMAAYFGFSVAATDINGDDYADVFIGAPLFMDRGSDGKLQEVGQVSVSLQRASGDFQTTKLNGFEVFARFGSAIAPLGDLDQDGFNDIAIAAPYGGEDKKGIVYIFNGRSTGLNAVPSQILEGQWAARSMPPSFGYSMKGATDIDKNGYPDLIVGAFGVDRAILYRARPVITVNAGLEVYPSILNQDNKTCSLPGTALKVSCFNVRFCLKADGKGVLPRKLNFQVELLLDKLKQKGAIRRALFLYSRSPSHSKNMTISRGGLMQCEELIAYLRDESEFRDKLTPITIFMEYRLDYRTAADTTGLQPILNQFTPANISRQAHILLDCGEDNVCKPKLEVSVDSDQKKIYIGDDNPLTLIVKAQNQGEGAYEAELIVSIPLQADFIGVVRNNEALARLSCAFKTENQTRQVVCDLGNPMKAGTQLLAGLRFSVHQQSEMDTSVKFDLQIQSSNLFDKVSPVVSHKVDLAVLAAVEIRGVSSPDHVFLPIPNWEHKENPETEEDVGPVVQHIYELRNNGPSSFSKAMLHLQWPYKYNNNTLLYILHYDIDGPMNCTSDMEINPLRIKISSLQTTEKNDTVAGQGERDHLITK
Integrin avb3, sequence (P06756 891-1048 limits assumed): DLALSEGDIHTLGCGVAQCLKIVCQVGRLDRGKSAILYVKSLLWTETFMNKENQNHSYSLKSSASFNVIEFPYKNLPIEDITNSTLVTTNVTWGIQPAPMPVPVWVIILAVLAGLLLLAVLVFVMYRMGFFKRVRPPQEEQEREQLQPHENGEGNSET
Integrin avb3, sequence (P05106 27-788): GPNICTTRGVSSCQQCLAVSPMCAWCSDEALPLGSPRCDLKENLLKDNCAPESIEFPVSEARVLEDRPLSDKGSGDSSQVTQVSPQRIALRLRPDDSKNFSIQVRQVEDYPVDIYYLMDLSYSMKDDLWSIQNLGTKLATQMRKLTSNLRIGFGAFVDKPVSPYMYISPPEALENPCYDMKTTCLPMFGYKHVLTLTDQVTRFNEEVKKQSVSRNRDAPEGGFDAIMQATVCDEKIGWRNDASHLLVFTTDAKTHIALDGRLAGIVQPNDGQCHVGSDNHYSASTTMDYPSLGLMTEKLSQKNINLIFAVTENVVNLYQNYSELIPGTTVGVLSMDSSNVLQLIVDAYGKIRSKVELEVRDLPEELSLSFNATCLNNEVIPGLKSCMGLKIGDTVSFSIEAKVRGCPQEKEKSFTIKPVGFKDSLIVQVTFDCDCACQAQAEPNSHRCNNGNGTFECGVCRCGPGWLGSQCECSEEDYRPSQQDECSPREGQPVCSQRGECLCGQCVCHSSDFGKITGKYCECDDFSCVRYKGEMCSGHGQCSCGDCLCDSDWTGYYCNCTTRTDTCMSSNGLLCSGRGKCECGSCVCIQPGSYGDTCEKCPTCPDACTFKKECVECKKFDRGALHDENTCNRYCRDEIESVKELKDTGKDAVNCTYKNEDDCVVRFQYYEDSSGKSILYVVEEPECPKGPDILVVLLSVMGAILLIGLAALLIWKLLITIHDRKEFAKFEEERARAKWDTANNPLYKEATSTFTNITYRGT
T1 sequence (P08648 42-894 limits assumed): as the sequence (P08648 42-894 partner limits assumed) above
T1 sequence (P08648 895-1049 limits assumed): as the sequence (P08648 895-1049 partner limits assumed) above
T1 sequence (P05556 21-798): as the sequence (P05556 21-798) above

As for GD2, in test [1], the “binding to integrin avb3” value is reported as “binds”. The adhesion to vitronectin entry in test [2] was “limit the adhesion”.

As for GD3, in test [3], the “interaction with keratinocyte a5b1” value is “direct interaction”. In addition, the “phosphorylation of FAK” value in test [4] is given as “inhibition of phosphorylation”. Moreover, the “phosphorylation of integrin-linked kinase” value in test [5] is listed as “inhibition of phosphorylation”. In addition, the “adhesion of keratinocytes and keratinocyte-derived cells to fibronectin” value in [6] is on record as “inhibit”. Further, in [1], the “binding to integrin avb3” value is recorded as “binds”. The “activity of MMP-2” value in test [7] (setting [19]) is recorded as “no change”; in [7] (setting [20]), “inhibit”. For the same substance, the entries for the “expression of MMP-2” value in test [7] (setting [19]) and in [7] (setting [20]) were “no change” and “inhibit”, respectively. The “migration of keratinocytes and keratinocyte-derived cells on fibronectin” value in [8] is listed as “inhibit”. In addition, in [2], the adhesion to vitronectin entry is “limit the adhesion”.

For the substance GM3, the “proliferation of skin cells” value in [9] (pharmacologic addition of ganglioside) is reported as “inhibit the proliferation”. Moreover, the “binding to the carbohydrate moieties of the epidermal growth factor receptor” value in test [10] is recorded as “direct binding”. Further, the “phosphorylation of PI3 kinase” value in [11] is “downregulates”. In addition, in test [12] (setting [21]), the “activity of MMP-9” value is “without affecting” and the “expression of MMP-9” value was “marked suppression”. In [13], the “phosphorylation of MAP kinase” value is “downregulates”. Also, the “expression of TIMP-1” value in [14] (setting [21]) is “marked suppression”.

Take GT1b: the “interaction with keratinocyte a5b1” value in [3] is “direct interaction”. In addition, the “phosphorylation of FAK” value in test [4] is reported as “inhibition of phosphorylation”. Moreover, in test [5], the “phosphorylation of integrin-linked kinase” value is “inhibition of phosphorylation”. In test [6], the “adhesion of keratinocytes and keratinocyte-derived cells to fibronectin” value was “inhibit”. Besides, in test [7] (setting [19]), the “activity of MMP-2” value was “no change” and the “expression of MMP-2” value is given as “no change”. In addition, in [7] (setting [20]), the “activity of MMP-2” value is recorded as “inhibit” and the “expression of MMP-2” value is reported as “inhibit”. For the same substance, the “migration of keratinocytes and keratinocyte-derived cells on fibronectin” value in test [8] is “inhibit”. Further, the “attachment of explant cultures” value in [15] is given as “clear inhibition of attachment”. Besides, in test [12] (setting [21]), the “activity of MMP-9” value was “without affecting” and the “expression of MMP-9” value was “marked suppression”. Also, the “binding to integrin b1” value in [16] is “able to bind”. Moreover, the b1 phosphorylation entry in test [17] was “inhibits”. Moreover, in test [17] (on binding of b1), the serine/threonine phosphorylation result is “inhibits”. In test [14] (setting [21]), the “expression of TIMP-1” value is “marked suppression”.

As for PIP3 [reference compound], in [7] (setting [20]), the “activity of MMP-2” value is listed as “increased” and the “expression of MMP-2” value is “increased”. The TIMP-2 expression entry in test [18] is “only slightly increase”.

On to concanavalin A [reference compound], for which, in [7] (setting [20]), the “activity of MMP-2” value is “increased” and the “expression of MMP-2” value was “increased”. In [18], the TIMP-2 expression result is “only slightly increase”.

On to “epidermal growth factor [reference compound]”, for which the “proliferation of skin cells” value in test [9] (added to sialidase-transfected (ganglioside-depleted) cells in culture) is listed as “further accentuated”. Besides, in test [12] (SCC12 cells), the “activity of MMP-9” value is reported as “increases its activity” and the “expression of MMP-9” value is recorded as “further increased”. Also, the “expression of TIMP-1” value in test [14] (SCC12 cells) is given as “does not affect”.

The record behind these values is patent US20020122795A1, “Compositions containing gangliosides for use in the treatment of skin disorders” (priority 2000, published 2002).
